The source made the active and inactive calls. No rule for the calls is given here.
Columns and labels:
Assay type in all cases: functional
[1] = Antioxidant activity assessed as metal chelating activity by measuring inhibition of ferrozine-Fe2+ complex formation at 25 to 100 ug/ml
[2] = tested on: Aspergillus oryzae; experiment: Antimicrobial activity against Aspergillus oryzae MTCC 3567 at 1000 ug/ml after 72 hrs by cup plate method; settings: MTCC 3567, 72 h, read-out: IZ
[3] = tested on: Aspergillus terreus; experiment: Antimicrobial activity against Aspergillus terreus MTCC 1782 at 750 ug/ml after 72 hrs by cup plate method; settings: MTCC 1782, 72 h, read-out: IZ
[4] = tested on: Aspergillus oryzae; experiment: Antimicrobial activity against Aspergillus oryzae MTCC 3567 at 750 ug/ml after 72 hrs by cup plate method; settings: MTCC 3567, 72 h, read-out: IZ
[5] = tested on: Aspergillus niger; experiment: Antimicrobial activity against Aspergillus niger MTCC 281 at 750 ug/ml after 72 hrs by cup plate method; settings: MTCC 281, 72 h, read-out: IZ
[6] = tested on: Pseudomonas aeruginosa; experiment: Antimicrobial activity against Pseudomonas aeruginosa MTCC 1688 at 1000 ug/ml after 24 hrs by cup plate method; settings: MTCC 1688, 24 h, read-out: IZ
[7] = tested on: Staphylococcus aureus; experiment: Antimicrobial activity against Staphylococcus aureus ATCC 29513 at 750 ug/ml after 24 hrs by cup plate method; settings: ATCC 29513, 24 h, read-out: IZ
[8] = tested on: Aspergillus niger; experiment: Antimicrobial activity against Aspergillus niger MTCC 281 at 1000 ug/ml after 72 hrs by cup plate method; settings: MTCC 281, 72 h, read-out: IZ
[9] = tested on: Escherichia coli; experiment: Antimicrobial activity against Escherichia coli MTCC 723 at 1000 ug/ml after 24 hrs by cup plate method; settings: MTCC 723, 24 h, read-out: IZ
[10] = tested on: Aspergillus terreus; experiment: Antimicrobial activity against Aspergillus terreus MTCC 1782 at 500 ug/ml after 72 hrs by cup plate method; settings: MTCC 1782, 72 h, read-out: IZ
[11] = tested on: Aspergillus flavus; experiment: Antimicrobial activity against Aspergillus flavus MTCC 1973 at 500 ug/ml after 72 hrs by cup plate method; settings: MTCC 1973, 72 h, read-out: IZ
[12] = tested on: Escherichia coli; experiment: Antimicrobial activity against Escherichia coli MTCC 723 at 750 ug/ml after 24 hrs by cup plate method; settings: MTCC 723, 24 h, read-out: IZ
[13] = tested on: Staphylococcus aureus; experiment: Antimicrobial activity against Staphylococcus aureus ATCC 29513 at 1000 ug/ml after 24 hrs by cup plate method; settings: ATCC 29513, 24 h, read-out: IZ
[14] = tested on: Pseudomonas aeruginosa; experiment: Antimicrobial activity against Pseudomonas aeruginosa MTCC 1688 at 750 ug/ml after 24 hrs by cup plate method; settings: MTCC 1688, 24 h, read-out: IZ
[15] = tested on: Pseudomonas aeruginosa; experiment: Antimicrobial activity against Pseudomonas aeruginosa MTCC 1688 at 500 ug/ml after 24 hrs by cup plate method; settings: MTCC 1688, 24 h, read-out: IZ
[16] = tested on: Escherichia coli; experiment: Antimicrobial activity against Escherichia coli MTCC 723 at 500 ug/ml after 24 hrs by cup plate method; settings: MTCC 723, 24 h, read-out: IZ
[17] = tested on: Aspergillus flavus; experiment: Antimicrobial activity against Aspergillus flavus MTCC 1973 at 1000 ug/ml after 72 hrs by cup plate method; settings: MTCC 1973, 72 h, read-out: IZ
[18] = tested on: Aspergillus flavus; experiment: Antimicrobial activity against Aspergillus flavus MTCC 1973 at 750 ug/ml after 72 hrs by cup plate method; settings: MTCC 1973, 72 h, read-out: IZ
[19] = tested on: Klebsiella pneumoniae; experiment: Antimicrobial activity against Klebsiella pneumoniae NCTC 13368 at 750 ug/ml after 24 hrs by cup plate method; settings: NCTC 13368, 24 h, read-out: IZ
[20] = tested on: Klebsiella pneumoniae; experiment: Antimicrobial activity against Klebsiella pneumoniae NCTC 13368 at 500 ug/ml after 24 hrs by cup plate method; settings: NCTC 13368, 24 h, read-out: IZ
[21] = tested on: Aspergillus niger; experiment: Antimicrobial activity against Aspergillus niger MTCC 281 at 500 ug/ml after 72 hrs by cup plate method; settings: MTCC 281, 72 h, read-out: IZ
[22] = tested on: Aspergillus oryzae; experiment: Antimicrobial activity against Aspergillus oryzae MTCC 3567 at 500 ug/ml after 72 hrs by cup plate method; settings: MTCC 3567, 72 h, read-out: IZ
[23] = tested on: Klebsiella pneumoniae; experiment: Antimicrobial activity against Klebsiella pneumoniae NCTC 13368 at 1000 ug/ml after 24 hrs by cup plate method; settings: NCTC 13368, 24 h, read-out: IZ
[24] = tested on: Aspergillus terreus; experiment: Antimicrobial activity against Aspergillus terreus MTCC 1782 at 1000 ug/ml after 72 hrs by cup plate method; settings: MTCC 1782, 72 h, read-out: IZ
[25] = tested on: Staphylococcus aureus; experiment: Antimicrobial activity against Staphylococcus aureus ATCC 29513 at 500 ug/ml after 24 hrs by cup plate method; settings: ATCC 29513, 24 h, read-out: IZ

Structure (SMILES) | Activity [1] | zone of inhibition at 1000 µg/mL [2] [mm] | zone of inhibition at 750 µg/mL [3] [mm] | zone of inhibition at 750 µg/mL [4] [mm] | zone of inhibition at 750 µg/mL [5] [mm] | zone of inhibition at 1000 µg/mL [6] [mm] | zone of inhibition at 750 µg/mL [7] [mm] | zone of inhibition at 1000 µg/mL [8] [mm] | zone of inhibition at 1000 µg/mL [9] [mm] | zone of inhibition at 500 µg/mL [10] [mm] | zone of inhibition at 500 µg/mL [11] [mm] | zone of inhibition at 750 µg/mL [12] [mm] | zone of inhibition at 1000 µg/mL [13] [mm] | zone of inhibition at 750 µg/mL [14] [mm] | zone of inhibition at 500 µg/mL [15] [mm] | zone of inhibition at 500 µg/mL [16] [mm] | zone of inhibition at 750 µg/mL [18] [mm] | zone of inhibition at 750 µg/mL [19] [mm] | zone of inhibition at 500 µg/mL [20] [mm] | zone of inhibition at 500 µg/mL [21] [mm] | also measured
Cc1ccc(C2=CC(c3c(-c4ccccc4)[nH]c4ccccc34)c3c(N)nc(=S)[nH]c3O2)cc1 (centres undefined) | Active | 9 | 4 | 9 | 5 | 3 | 4 | 2 | 3 | 6 | 3 | 8 | 4 | 5 | 5 | 9 | 3 | 9 | 9 | 6 | zone of inhibition at 1000 µg/mL [17]: 3 mm; zone of inhibition at 500 µg/mL [22]: 10 mm; zone of inhibition at 1000 µg/mL [23]: 3 mm; zone of inhibition at 1000 µg/mL [24]: 4 mm; zone of inhibition at 500 µg/mL [25]: 6 mm
Cc1ccc(C2=CC(c3c(-c4ccccc4)[nH]c4ccccc34)c3c(nc[nH]c3=O)O2)cc1 (centres undefined) | Active | 3 | 8 | 3 | 8 | 3 | 2 | 11 | 3 | 8 | 3 | 3 | 2 | 3 | 4 | 3 | 3 | 6 | 6 | 8 | zone of inhibition at 1000 µg/mL [17]: 5 mm; zone of inhibition at 500 µg/mL [22]: 3 mm; zone of inhibition at 1000 µg/mL [23]: 6 mm; zone of inhibition at 1000 µg/mL [24]: 8 mm; zone of inhibition at 500 µg/mL [25]: 2 mm
Nc1n[nH]c2c1C(c1c(-c3ccccc3)[nH]c3ccccc13)C=C(c1ccccc1)O2 (centres undefined) | Active | 10 | 5 | 5 | 5 | 12 | 2 | 6 | 9 | 5 | 10 | 9 | 2 | 12 | 12 | 10 | 10 | 9 | 10 | 5 | zone of inhibition at 1000 µg/mL [17]: 3 mm; zone of inhibition at 500 µg/mL [22]: 6 mm; zone of inhibition at 1000 µg/mL [23]: 8 mm; zone of inhibition at 1000 µg/mL [24]: 5 mm; zone of inhibition at 500 µg/mL [25]: 2 mm
Cc1ccc2[nH]c(-c3ccccc3)c(C3C=C(c4ccccc4)Oc4nc5oc(=O)c(C#N)c(N)c5c(N)c43)c2c1 (centres undefined) | Active | 8 | 4 | 8 | 10 | 0 | 8 | 10 | 5 | 9 | 5 | 9 | 4 | 3 | 3 | 10 | 0 | 4 | 4 | 10 | zone of inhibition at 500 µg/mL [22]: 11 mm; zone of inhibition at 1000 µg/mL [23]: 4 mm; zone of inhibition at 1000 µg/mL [24]: 4 mm; zone of inhibition at 500 µg/mL [25]: 9 mm
